In US20150266850A1 (E.I.DU PONT DE NEMOURS AND COMPANY, priority 2012, published 2015):

Assays:
[1] = system: Septoria tritici; assay: Test C: wheat leaf blotch, preventive spray on wheat seedlings, visual disease rating; type: in vivo; details: Zymoseptoria tritici, 504 h, 200 ppm, 100 = 100% disease control
Summary of the method: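 Preventive run-off spray on seedlings at 200 ppm (equal to 800 g/ha), some at 40 or 50 ppm, in acetone/water 50/50 plus 250 ppm Trem® 014. Spore inoculation one day later; 24° C. saturated for 48 h, 20° C. chamber 19 days. Disease scored visually as % control relative to controls.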

[2] = system: Botrytis cinerea; assay: Test E: tomato botrytis, preventive spray on tomato seedlings, visual disease rating; type: in vivo; details: Botrytis cinerea, 120 h, 200 ppm, 100 = 100% disease control
Summary of the method: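 Preventive test: seedlings inoculated with Botrytis cinerea spore suspension one day after run-off spraying (200 ppm ≈ 800 g/ha; some 40 or 50 ppm) in acetone/water with 250 ppm surfactant. Incubation 48 h at 20°C saturated humidity, then 3 days at 27°C; disease control rated visually (0–100%) relative to controls.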

[3] = system: Erysiphe graminis f. sp. tritici; assay: Test A: wheat powdery mildew, preventive spray on wheat seedlings, visual disease rating; type: in vivo; details: Blumeria graminis, 192 h, 200 ppm, 100 = 100% disease control
Summary of the method: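 Preventive test: seedlings inoculated with Erysiphe spores one day after run-off spraying at 200 ppm (or 40/50 ppm) in acetone/water plus surfactant. Kept 8 days at 20° C; visual rating as % disease control versus untreated (100 = full control).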

[4] = Photostability Example: aqueous photolysis under xenon arc lamp simulating natural sunlight for 24 hours, percent remaining relative to dark controls; type: physicochemical; details: 0.670 μg/mL in 80/20 10 mM pH 7 phosphate buffer/acetonitrile, xenon arc lamp 24 hours
Method: Aqueous photolysis data is a simple proxy for photostability under field conditions. The following aqueous photolysis data supports the enhanced photostability of the tolyl fungicides of the present invention.
Test compound (0.670 μg/mL) dissolved in 80/20 10 mM pH 7 phosphate buffer/acetonitrile is added to 2-mL borosilicate glass HPLC vials. The addition of 20% acetonitrile is intended to ensure solubility of compounds with low aqueous solubility. Samples are exposed to light in an Atlas Ci65 Burner photolysis chamber fitted with a xenon arc lamp (6500 W) to simulate natural sunlight for 24 hours and compared with samples wrapped in aluminum foil to protect them from light under the same conditions. The 24-hour irradiation is equivalent to ˜2.6 days of average Delaware summer sunlight exposure. Samples are analyzed by HPLC and results are reported as percent remaining based on peak area relative to the dark controls.

[5] = system: Puccinia recondita f sp. tritici; assay: Test B: wheat leaf rust, preventive spray on wheat seedlings, visual disease rating; type: in vivo; details: 192 h, 200 ppm, 100 = 100% disease control
Summary of the method: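 Preventive spray to run-off on seedlings, one day before spore inoculation; 24 h in saturated atmosphere at 20° C, then 7 days in a 20° C growth chamber before visual rating (100 = full control, 0 = none, relative to controls). Standard rate 200 ppm, equal to 800 g/ha, some at 40 or 50 ppm; compounds in acetone/water with 250 ppm surfactant.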

[6] = system: Septoria nodorum; assay: Test D: wheat glume blotch, preventive spray on wheat seedlings, visual disease rating; type: in vivo; details: Parastagonospora nodorum, 216 h, 200 ppm, 100 = 100% disease control
Summary of the method: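 Disease control (0 = none, 100 = full, relative to controls) was scored visually on wheat seedlings 7 days after a 48 h saturated-humidity incubation at 20° C following Septoria nodorum inoculation. Inoculation came one day after a run-off spray at 200 ppm (some 40 or 50 ppm) in acetone/water plus surfactant.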

COC(=O)NCc1cc(-n2ncc(-c3ccc(OC)cc3OC)n2)ccc1C [Compound 17, methyl N-[[5-[4-(2,4-dimethoxyphenyl)-2H-1,2,3-triazol-2-yl]-2-methylphenyl]methyl]carbamate]
pest or weed control at 200 ppm [1]: 100%
pest or weed control at 200 ppm [2]: 33%
pest or weed control at 200 ppm [3]: 100%
melting point: 132 to 135 °C
% Cmpd Remaining [4]: 30%
pest or weed control at 200 ppm [5]: 100%
pest or weed control at 200 ppm [6]: 100%
